Several values for one entry are separate records, joined by “and”; a condition that tells them apart may be missing. Identical values can stand only once. Entries after “also recorded” stand apart in the source; their conditions may differ. Like-named read-outs stand apart in the source and are kept apart here.

The subject of data set [1] is Chinese hamster ovary (CHO-K1) cells. To be noted: in vitro; cited from earlier work.
Another data set has as its system B. pumilus spores. Kind of data set: Spore strip sterilization, soybean-casein medium. Type of data set: cell-based. Particulars: 72 hours. As to the method:
(§1) Spore strips of B. pumilus (ATCC 27142) with 1.9×10^6 spores (SGM Biotech, Bozeman, Mont.) and G. stearothermophilus (ATCC 7953) with 1.9×10^6 spores (SGM Biotech, Bozeman, Mont.) were treated with doses of genipin equivalent to those that sterilized of B. subtilis. B. pumilus conventional spore strips were treated with 1.75 mL of solution and G stearothermophilus mini spore strips were treated with 0.5 mL of solution. Spore strips were treated with 1:1 DMSO:PBS; 2.6 mg, 8.3 mg, 25 mg, and […] genipin per 10^6 spores in 1:1 DMSO:PBS; and 10% formalin (N=4). After treatment for 72 hours spore strips were washed and transferred to soybean-casein medium (Becton Dickinson, Franklin Lanes, N.J.). B. pumilus was incubated at 32.5° C. and G stearothermophilus was incubated at 57.5° C.

Data set [2] has as its system Geobacillus stearothermophilus spores. Description: Spore strip sterilization, soybean-casein medium. Type of data set: cell-based. As to the method:
as §1

For the next data set, the system named is cells in culture. To be noted: 2200 μMolar sterile genipin; cited from earlier work.
Data set [3] deals with bovine nucleus pulposus cells. Particulars: cells entrapped in chitosan gels crosslinked with 5% genipin; cited from earlier work.
For another data set, the system named is 3T3 fibroblasts. Particulars: in vitro; cited from earlier work.
Another data set has as its system B. subtilis spores. Description: Scanning electron microscopy of genipin-treated spores. Type of data set: cell-based. Particulars: 10% and 0.63% genipin in 1:1 DMSO:PBS, 72 hours, room temperature. As to the method: The morphology of B. subtilis was evaluated using scanning electron microscopy. Spore strips were either untreated, treated with 0.5 mL of sterile 1:1 DMSO:PBS without genipin, or 0.5 mL of sterile 0.63% or 10% genipin in 1:1 DMSO:PBS for 72 hours at room temperature. After treatment, spore strips were washed with sterile water and dehydrated with increasing concentrations of ethanol (70%, 80%, 90%, and 100%) and subjected to critical point drying. The spore strips were mounted onto a stage, sputter coated with gold, and visualized under a scanning electron microscopy (Hitachi S-4500 Cold Field Emission SEM, Hitachi, Ltd., Tokyo, Japan).

The subject of a further data set is osteoblasts. To be noted: cells directly exposed to genipin solution; cited from earlier work.
The conditions of data set [4]: cited from earlier work.
Data set [5] relates to Bacillus subtilis var. niger spores. Type of data set: cell-based. To be noted: for colonies at the 1-log reduction level: 72 hours, room temperature. As to the method:
B. subtilis mini spores strips with 1.2×10^6 spores were treated with 0.5 mL of sterile PBS; 1:1 DMSO:PBS without genipin; 0.63%, 2%, 6%, and 10% genipin in 1:1 DMSO:PBS; and 10% formalin for 72 hours at room temperature (N=4 per group). Spore strips were then washed with sterile water and then aseptically macerated, serially diluted, and plated onto petri dishes with soybean-casein digest agar (Mo Bio Laboratories, Carlsbad, Calif.). Spores were incubated for 48 hours at 32.5° C. after which time colony counts were performed.

Data set [6] shares this test system. Type of data set: cell-based. Particulars: for spore strips sterilized: room temperature (Example 6). As to the method: The sterilization potential of genipin was measured by treating B. subtilis mini spore strips with 1.2×10^6 bacterial spores (ATCC 9372, North American Science Associates, Inc., Northwood, Ohio) with 0.5 mL of sterile 1:1 dimethyl sulfoxide (Avantor Performance Materials, Inc., Center Valley, Pa.): phosphate-buffered saline (Fisher Scientific, Pittsburgh, Pa.) (DMSO: PBS, v/v); 2%, 6%, and 10% genipin in 1:1 DMSO:PBS; and 10% formalin (Fisher Scientific, Pittsburgh, Pa.) (N=4 per group). Genipin treatments corresponded to 8.3 mg, 25 mg, and 42 mg genipin per 10^6 spores for the 2%, 6%, and 10% groups, respectively. Treatment was conducted at room temperature, 20-25° C., for 24 hours and 72 hours. Spore strips were subsequently washed with sterile water and aseptically transferred to Releasat® rapid-readout color changing vials (SGM Biotech, Bozeman, Mont.) which have soybean-casein digest medium with the pH indicator phenol red, designed to change color from orange to yellow in the presence of spore germination and proliferation. Spores were incubated for one week at 37° C.
B. subtilis mini spores strips with 1.2×10^6 spores were treated with 0.5 mL of sterile PBS and 1:1 DMSO:PBS without genipin; 0.03%, 0.32%, and 0.63% genipin in 1:1 DMSO: PBS; 0.63% genipin in PBS; and 10% formalin for 72 hours at room temperature (N=4 per group). Genipin treatments corresponded to 0.13 mg, 1.3 mg, and 2.6 mg genipin per 10^6 spores for the 0.03%, 0.32%, and 0.63% groups, respectively. Spore strips were subsequently washed with sterile water, aseptically transferred to Releasat® vials, and incubated for one week at 37° C.
B. subtilis mini spores strips with 1.2×10^6 spores were treated with 0.5 mL of sterile 1:1 DMSO:PBS without genipin; 0.63%, 2%, 6%, and 10% genipin in 1:1 DMSO:PBS; and 10% formalin for 72 hours at room temperature (N=4 per group). Spore strips were subsequently washed with sterile water, aseptically transferred to Releasat® vials, and incubated for one week at 37° C.
A priori power analysis was performed with G*Power (G*Power 3.1.3, Kiel, Germany). To detect at least a one-log difference in population assays, comparing groups at an α=0.05 and power >0.999 required N=3 per group. One-tailed Mann-Whitney U tests were performed for comparing population assay groups. Chi squared tests and binomial exact confidence intervals were performed comparing spore viability against expected spore counts for dichotomous (sterile, non-sterile) growth in medium based on the manufacturer's certificate of analysis (COA), and the population assays (PA, for B. subtilis only), using Minitab 16 (Minitab, Inc., State College, Pa.). Statistical significance was set at p≦0.05.

Data set [7] has as its system fibroblasts. To be noted: cited from earlier work.
Data set [8] relates to Bacillus subtilis var. niger spores. The format is cell-based.
Data set [9] deals with fibroblasts. Particulars: cells directly exposed to genipin solution; cited from earlier work.
Data set [10] concerns over 40 bacterial (non-spore forms) and fungal species. Particulars: most 20-40%; cited from earlier work.
The conditions of data set [11]: cited from earlier work. The source holds these as a separate data set.
[12] abbreviates: 0.03% genipin in 1:1 DMSO:PBS, 72 hours, room temperature.
Where [13] appears, read: 0.32% genipin in 1:1 DMSO:PBS, 72 hours, room temperature.

On to `COC(=O)C1=CO[C@@H](O)C2C(CO)=CC[C@H]12` (stereo in doubt) [genipin, methyl (1R,2R,6S)-2-hydroxy-9-(hydroxymethyl)-3-oxabicyclo [4.3.0]nona-4,8-diene-5-carboxylate], for which, in data set [1], the clastogenic response entry is “does not cause clastogenic response”. For the same compound, the “log reduction in spore viability” value is “at least 6 log” in the data set with B. pumilus spores (2.6 mg-42 mg genipin/10^6 spores in 1:1 DMSO:PBS, room temperature); “at least 6 log” in data set [2] (2.6 mg-42 mg genipin/10^6 spores in 1:1 DMSO:PBS, 72 hours, room temperature); 5- to 6 log and > 5 log in data set [6] (setting [12]); 5- to 6 log and > 5 log in data set [6] (setting [13]); at least 6 log in [6] (0.63% genipin, all doses of DMSO (0-50%), 37° C.); “at least 6 log” in [6] (0.63%-10% genipin in 1:1 DMSO:PBS, 72 hours, room temperature (confirmatory experiment)). Further, the “log reduction in spore viability” value in data set [8] (0.63% genipin in PBS, 37° C.) is at least 6 log. The spore strips sterilized is 4/4 in the data set with B. pumilus spores (all genipin doses (2.6-42 mg per 10^6 spores) in 1:1 DMSO:PBS); “Three of 4” in data set [2] (2.6 mg genipin/10^6 spores in 1:1 DMSO:PBS, 72 hours); 4/4 in data set [2] (8.3 mg genipin/10^6 spores in 1:1 DMSO:PBS, 72 hours); “Three of 4” in data set [2] (25 mg genipin/10^6 spores in 1:1 DMSO:PBS, 72 hours); 4/4 in [2] (42 mg genipin/10^6 spores in 1:1 DMSO:PBS, 72 hours); 3 of 4 in [6] (2% genipin in 1:1 DMSO:PBS, 72 hours). Besides, the spore strips sterilized is on record as 3 of 4 in data set [6] (6% genipin in 1:1 DMSO:PBS, 72 hours) and “all” in data set [6] (10% genipin in 1:1 DMSO:PBS, 72 hours). In addition, the cell death result in the data set on cells in culture is listed as “complete cell death”. Besides, the cell viability result in [3] was “up to 87%”. In the data set on 3T3 fibroblasts, the “cytotoxicity compared with glutaraldehyde” value is given as “substantially less cytotoxic than glutaraldehyde”. The “spore morphology versus untreated spore strips” value with B. subtilis spores is “no appreciable morphological differences”. The “concentration sufficient for cytotoxicity” value in the data set with osteoblasts and in the data set with fibroblasts [9] was 80-100 ppm throughout. For the same compound, the “relative solubility in solvents” value in data set [4] (organic solvents versus PBS) was “more soluble in ethanol than in PBS; also recorded: substantially more soluble in organic solvents”. Also, the “solubility in PBS” value in data set [4] (phosphate-buffered saline) is on record as “approximately 1%”. Also, the “colonies at the 1-log reduction level” value is given as “no colonies” in data set [5] (0.63% genipin in 1:1 DMSO:PBS), “no colonies” in [5] (2% genipin in 1:1 DMSO:PBS), “no colonies” in [5] (6% genipin in 1:1 DMSO:PBS) and “three 10% genipin-treated spore strips yielded no colonies” in data set [5] (10% genipin in 1:1 DMSO:PBS). The “log reduction in B. subtilis viability” value in data set [5] (0.63% genipin in PBS, one week treatment (unpublished pilot data)) was 2 log. Also, the spore strips sterile result in data set [6] (setting [12]) was “two of four”; in data set [6] (setting [13]), “one of four”; in [6] (0.63% genipin in 1:1 DMSO:PBS, 72 hours, room temperature (Example 7)), “Three of four”. Moreover, the spore strip viability/sterility result in [6] (0.63% genipin in PBS, 72 hours, room temperature) is recorded as “demonstrated viability”; in data set [6] (0.63%, 2%, 6%, 10% genipin in 1:1 DMSO:PBS, 72 hours, room temperature (confirmation, Example 8)), “sterilized the spore strips”; in data set [6] (2%-10% genipin in 1:1 DMSO:PBS, 24 hours, room temperature), “demonstrated bacterial viability; also recorded: unable to sterilize any spore strips; also recorded: yellow (growth)”. In data set [6] (1:1 DMSO:PBS, 72 hours, room temperature), the “genipin dose necessary for eradication of B. subtilis” value was “at least 2.6 mg/10^6 spores”. Also, the “fibroblast proliferation on treated tissue” value with fibroblasts [7] (bovine pericardia treated with 0.625% genipin in PBS, within three days) was “substantial fibroblast proliferation”. For the same compound, the sterile vials is reported as 2/5 in data set [8] (0.63% genipin in 50% DMSO/50% PBS, room temperature (Example 12)) and 5/5 in data set [8] (0.63% genipin, all doses of DMSO (0-50%) in PBS, 37° C.).

In the case of `C[S+](C)[O-]` [DMSO, dimethyl sulfoxide], the microbicidal concentration in data set [10] was 8 to 40%. The toxicity rate in data set [11] (DMSO washed off or less than 10% DMSO) is 0.3%. In data set [11] (stem cells cryopreserved with 10% DMSO, review of 34,000 transplants), the toxicity incidence was 1.5%.

For `C=O` [formalin, reference compound], the spore strip viability/sterility entry in data set [2] (10% formalin, 72 hours) is on record as “presence of spore viability”; in [2] (10% formalin, 72 hours, listed as 10% formalin), “demonstrated viability”; in [6] (10% formalin, 24 hours, room temperature) it was “orange (sterile)”. The “spore strips from which G. stearothermophilus grew” value in data set [2] (10% formalin, 72 hours) was 100%. For the same compound, the “time required to demonstrate viability” value in data set [2] (10% formalin, 72 hours treatment) was found to be 2.25 ± 0.50 days. In [5] (10% formalin), the “colonies at the 1-log reduction level” value is on record as “no colonies”.

As for `O=CCCCC=O` [glutaraldehyde, reference compound], the “fibroblast proliferation on treated tissue” value in the data set with fibroblasts [7] (0.625% glutaraldehyde-treated pericardia, after seven days) is given as “no cellular proliferation”.

Values taken from patent publication US20130225669A1 (priority 2012, published 2013).
